In article PMC9898036, “VIP152 is a selective CDK9 inhibitor with pre-clinical in vitro and in vivo efficacy in chronic lymphocytic leukemia” (Leukemia, 2022):

Tests used:
Assay type in all cases: binding
GSK3α = GSK3α (Homo sapiens, UniProt P49840); assay: KINOMEscan: GSK3α
Description: The structure and synthesis of VIP152 were recently described by Lücking et al.. (Fig. 1A); however, the selectivity of the molecule in cellular systems has yet to be explored. […] We also performed this experiment at 1000 nM, where CDK9 was inhibited at 99%. […] We found a strong concordance between our data and those of Lücking when comparing the most inhibited kinases. Potential off-target effects of VIP152 were next tested in vitro at a concentration of 10 µM for off-target activity against a broad range of receptors, transporters, ion channels, and enzymes (n = 138) using the Eurofins Diversity Panel.
Kinomescan Kinase Profiling Assay
Kinomescan Assay was performed at DiscoverRX and described in Fabian, et al. 2005, Nat.
Biotechnol. In brief, kinases were produced and subsequently tagged with DNA for qPCR detection.
Streptavidin-coated magnetic beads were bound to biotinylated kinase ligands to serve as a solid support.
VIP152 was dissolved in DMSO and tested across a 10 serial threefold dilution set and compared to a test compound and a DMSO control. Kinases which were inhibited by VIP152 would not be bound to the solid-support resulting in decreased substrate for the qPCR reaction. Kinome map was produced via TreeSpot Analysis from DiscoverRX. […]
NanoBRETTM Target Engagement Assay Protocol […]
HEK293 cells were grown to 70-80% confluence appropriately prior to assay and subsequently trypsinized. Lipid:DNA complexes were prepared as follows. A 10µg/mL solution of DNA in Opti-MEM without serum consisting of the following ratios of carrier DNA and DNA encoding NanoLuc fusion were prepared.
9.0µg/mL of Transfection Carrier DNA, 1.0µg/mL of NanoLuc fusion vector DNA, and 1mL of Opti-MEM without phenol red. The solution was mixed thoroughly. Next, 30µL of FuGENE HD Transfection Reagent was added into each mL of DNA mixture to form the lipid:DNA complex and mixed by inversion 10 times followed by a 20 minute incubation at room temperature. […]

Muscarinic M1 = Muscarinic M1 (Homo sapiens, UniProt P11229); assay: Eurofins Diversity Panel; conditions: hum, Conc. 10 μM
[1] = target: Nicotinic Acetylcholine α1, Bungarotoxin (Homo sapiens, UniProt P02708+P07510+Q07001); assay: Eurofins Diversity Panel; conditions: read-out: % Inh.
Nicotinic Acetylcholine α1, Bungarotoxin, sequence (Q07001 22-517): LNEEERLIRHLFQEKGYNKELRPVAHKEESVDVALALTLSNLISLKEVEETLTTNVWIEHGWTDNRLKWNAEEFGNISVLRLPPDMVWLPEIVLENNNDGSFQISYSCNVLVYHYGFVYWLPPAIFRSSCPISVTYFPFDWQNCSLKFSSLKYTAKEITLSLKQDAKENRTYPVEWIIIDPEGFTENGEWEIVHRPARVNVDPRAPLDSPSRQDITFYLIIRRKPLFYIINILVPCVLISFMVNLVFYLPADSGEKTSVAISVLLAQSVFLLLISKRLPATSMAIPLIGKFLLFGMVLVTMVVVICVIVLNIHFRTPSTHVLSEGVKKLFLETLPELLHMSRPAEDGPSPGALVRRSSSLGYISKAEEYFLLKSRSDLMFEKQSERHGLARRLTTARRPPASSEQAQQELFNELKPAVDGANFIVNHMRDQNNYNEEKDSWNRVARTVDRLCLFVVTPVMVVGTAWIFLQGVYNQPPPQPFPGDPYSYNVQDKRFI
Nicotinic Acetylcholine α1, Bungarotoxin, sequence (P07510 23-517): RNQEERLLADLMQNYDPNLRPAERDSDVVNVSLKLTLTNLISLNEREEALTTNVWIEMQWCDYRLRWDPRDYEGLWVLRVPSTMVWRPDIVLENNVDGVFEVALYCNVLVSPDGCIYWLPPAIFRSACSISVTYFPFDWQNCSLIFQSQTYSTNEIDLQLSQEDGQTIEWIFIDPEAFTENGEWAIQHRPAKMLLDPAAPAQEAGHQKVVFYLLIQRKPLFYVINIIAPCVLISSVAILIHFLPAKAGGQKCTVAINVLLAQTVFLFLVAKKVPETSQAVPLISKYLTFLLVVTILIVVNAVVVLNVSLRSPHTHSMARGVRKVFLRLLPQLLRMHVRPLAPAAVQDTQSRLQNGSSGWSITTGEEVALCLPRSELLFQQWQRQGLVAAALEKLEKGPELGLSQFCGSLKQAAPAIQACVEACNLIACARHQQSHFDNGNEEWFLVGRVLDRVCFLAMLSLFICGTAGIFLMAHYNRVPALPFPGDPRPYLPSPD
Nicotinic Acetylcholine α1, Bungarotoxin, sequence (P11230 24-501, further chain): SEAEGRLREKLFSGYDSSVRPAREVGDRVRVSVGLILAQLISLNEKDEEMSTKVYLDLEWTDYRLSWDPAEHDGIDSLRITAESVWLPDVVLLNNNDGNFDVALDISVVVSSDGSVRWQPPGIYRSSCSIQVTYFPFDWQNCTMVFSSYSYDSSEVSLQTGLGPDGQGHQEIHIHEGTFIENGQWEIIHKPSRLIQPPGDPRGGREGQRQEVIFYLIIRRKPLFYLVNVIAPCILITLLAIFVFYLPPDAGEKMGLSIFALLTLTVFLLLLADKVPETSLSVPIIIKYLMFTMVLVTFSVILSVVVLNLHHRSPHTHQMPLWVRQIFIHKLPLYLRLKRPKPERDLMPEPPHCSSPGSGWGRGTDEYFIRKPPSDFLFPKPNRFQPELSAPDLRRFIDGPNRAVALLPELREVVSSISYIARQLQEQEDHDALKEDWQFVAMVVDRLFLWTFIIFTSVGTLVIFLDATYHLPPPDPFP
Nicotinic Acetylcholine α1, Bungarotoxin, sequence (P02708 21-457): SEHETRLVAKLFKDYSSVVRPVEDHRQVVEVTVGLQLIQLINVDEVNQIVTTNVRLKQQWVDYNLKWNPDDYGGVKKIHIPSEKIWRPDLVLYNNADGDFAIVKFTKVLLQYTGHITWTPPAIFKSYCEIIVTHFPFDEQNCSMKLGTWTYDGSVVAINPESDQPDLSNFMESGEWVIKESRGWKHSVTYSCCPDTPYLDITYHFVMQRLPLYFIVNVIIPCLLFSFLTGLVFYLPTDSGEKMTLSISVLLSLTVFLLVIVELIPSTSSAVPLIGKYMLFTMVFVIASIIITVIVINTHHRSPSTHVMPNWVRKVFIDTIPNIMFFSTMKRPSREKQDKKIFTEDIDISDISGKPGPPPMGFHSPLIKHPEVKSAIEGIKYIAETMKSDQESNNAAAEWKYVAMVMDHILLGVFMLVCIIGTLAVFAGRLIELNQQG

Opiate κ(OP2, KOP) = Opiate κ(OP2, KOP) (Homo sapiens, UniProt P41145); assay: Eurofins Diversity Panel; conditions: hum, Conc. 10 μM
PKNB(M.tuberculosis) = PKNB(M.tuberculosis) (Mycobacterium tuberculosis, UniProt P9WI81); assay: DiscoverX KINOMEscan kinase profiling; conditions: kinase PKNB(M.tuberculosis) (Entrez pknB); compound concentration 1000 nM; read-out: Percent Control
[2] = target: RSK1(Kin.Dom.1-N-terminal) (Homo sapiens, UniProt Q15418); assay: KINOMEscan: RSK1(Kin.Dom.1-N-terminal); conditions: 100 nM, read-out: Percent Control
SRMS = SRMS (Homo sapiens, UniProt Q9H3Y6); assay: KINOMEscan: SRMS; conditions: 100 nM, read-out: Percent Control
TAK1 = TAK1 (Homo sapiens, UniProt O43318); assay: KINOMEscan: TAK1; conditions: 100 nM, read-out: Percent Control
TIE1 = TIE1 (Homo sapiens, UniProt P35590); assay: KINOMEscan: TIE1; conditions: 100 nM, read-out: Percent Control
TTK = TTK (Homo sapiens, UniProt P33981); assay: KINOMEscan: TTK; conditions: 100 nM, read-out: Percent Control
TTK, sequence (P33981 whole entry): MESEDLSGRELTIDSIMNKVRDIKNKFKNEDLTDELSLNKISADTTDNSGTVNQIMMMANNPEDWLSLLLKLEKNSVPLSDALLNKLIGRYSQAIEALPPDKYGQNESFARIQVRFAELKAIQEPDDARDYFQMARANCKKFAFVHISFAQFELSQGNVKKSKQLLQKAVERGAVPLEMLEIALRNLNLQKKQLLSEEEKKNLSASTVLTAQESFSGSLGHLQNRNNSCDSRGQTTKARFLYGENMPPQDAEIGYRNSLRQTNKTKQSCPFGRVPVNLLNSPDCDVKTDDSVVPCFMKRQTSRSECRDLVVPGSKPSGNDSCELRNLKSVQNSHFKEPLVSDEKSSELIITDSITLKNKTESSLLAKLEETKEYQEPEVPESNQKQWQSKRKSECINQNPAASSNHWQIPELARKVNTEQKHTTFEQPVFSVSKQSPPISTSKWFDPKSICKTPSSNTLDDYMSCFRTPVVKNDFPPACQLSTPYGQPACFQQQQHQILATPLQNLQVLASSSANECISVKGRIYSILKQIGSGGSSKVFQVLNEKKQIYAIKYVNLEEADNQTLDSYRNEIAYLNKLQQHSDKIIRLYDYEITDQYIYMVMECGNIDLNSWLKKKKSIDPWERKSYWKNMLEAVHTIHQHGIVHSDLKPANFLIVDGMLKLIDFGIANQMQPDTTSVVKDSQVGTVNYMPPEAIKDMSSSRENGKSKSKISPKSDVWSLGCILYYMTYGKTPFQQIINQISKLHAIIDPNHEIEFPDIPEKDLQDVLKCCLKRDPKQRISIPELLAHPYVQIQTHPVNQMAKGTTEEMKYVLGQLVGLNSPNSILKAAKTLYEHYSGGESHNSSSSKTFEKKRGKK

VPS34 = VPS34 (Homo sapiens, UniProt Q8NEB9); assay: KINOMEscan: VPS34; conditions: 100 nM, read-out: Percent Control
WEE1 = WEE1 (Homo sapiens, UniProt P30291); assay: KINOMEscan: WEE1; conditions: 100 nM, read-out: Percent Control
ACVR1 = ACVR1 (Homo sapiens, UniProt Q04771); assay: KINOMEscan: ACVR1; conditions: 1000 nM, read-out: Percent Control
ACVR1, sequence (Q04771 21-509): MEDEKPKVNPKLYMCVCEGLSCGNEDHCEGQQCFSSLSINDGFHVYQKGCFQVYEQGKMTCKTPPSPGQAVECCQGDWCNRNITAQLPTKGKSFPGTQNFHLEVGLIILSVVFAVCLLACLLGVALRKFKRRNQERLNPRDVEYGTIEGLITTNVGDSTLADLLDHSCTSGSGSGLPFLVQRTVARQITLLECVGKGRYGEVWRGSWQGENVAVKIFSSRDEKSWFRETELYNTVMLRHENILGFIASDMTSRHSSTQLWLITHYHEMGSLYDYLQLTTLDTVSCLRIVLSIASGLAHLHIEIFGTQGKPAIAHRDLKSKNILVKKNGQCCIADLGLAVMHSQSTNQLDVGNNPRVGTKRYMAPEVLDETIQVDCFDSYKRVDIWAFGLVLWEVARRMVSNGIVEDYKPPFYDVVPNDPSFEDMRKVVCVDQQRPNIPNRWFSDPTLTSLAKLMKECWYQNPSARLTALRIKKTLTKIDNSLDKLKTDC

ACVR2B = ACVR2B (Homo sapiens, UniProt Q13705); assay: KINOMEscan: ACVR2B; conditions: 1000 nM, read-out: Percent Control
ALK = ALK (Homo sapiens, UniProt Q9UM73); assay: KINOMEscan: ALK; conditions: 1000 nM, read-out: Percent Control
ANKK1 = ANKK1 (Homo sapiens, UniProt Q8NFD2); assay: KINOMEscan: ANKK1; conditions: 1000 nM, read-out: Percent Control
ASK1 = ASK1 (Homo sapiens, UniProt Q99683); assay: KINOMEscan: ASK1; conditions: 1000 nM, read-out: Percent Control
ASK2 = ASK2 (Homo sapiens, UniProt O95382); assay: KINOMEscan: ASK2; conditions: 1000 nM, read-out: Percent Control
AURKC = AURKC (Homo sapiens, UniProt Q9UQB9); assay: KINOMEscan: AURKC; conditions: 1000 nM, read-out: Percent Control
CHEK1 = CHEK1 (Homo sapiens, UniProt O14757); assay: KINOMEscan: CHEK1; conditions: 1000 nM, read-out: Percent Control
EGFR(T790M) = EGFR(T790M) (Homo sapiens, UniProt P00533, T790M); assay: KINOMEscan: EGFR(T790M); conditions: 1000 nM, read-out: Percent Control
EGFR(T790M), sequence (P00533 25-1210 T790M): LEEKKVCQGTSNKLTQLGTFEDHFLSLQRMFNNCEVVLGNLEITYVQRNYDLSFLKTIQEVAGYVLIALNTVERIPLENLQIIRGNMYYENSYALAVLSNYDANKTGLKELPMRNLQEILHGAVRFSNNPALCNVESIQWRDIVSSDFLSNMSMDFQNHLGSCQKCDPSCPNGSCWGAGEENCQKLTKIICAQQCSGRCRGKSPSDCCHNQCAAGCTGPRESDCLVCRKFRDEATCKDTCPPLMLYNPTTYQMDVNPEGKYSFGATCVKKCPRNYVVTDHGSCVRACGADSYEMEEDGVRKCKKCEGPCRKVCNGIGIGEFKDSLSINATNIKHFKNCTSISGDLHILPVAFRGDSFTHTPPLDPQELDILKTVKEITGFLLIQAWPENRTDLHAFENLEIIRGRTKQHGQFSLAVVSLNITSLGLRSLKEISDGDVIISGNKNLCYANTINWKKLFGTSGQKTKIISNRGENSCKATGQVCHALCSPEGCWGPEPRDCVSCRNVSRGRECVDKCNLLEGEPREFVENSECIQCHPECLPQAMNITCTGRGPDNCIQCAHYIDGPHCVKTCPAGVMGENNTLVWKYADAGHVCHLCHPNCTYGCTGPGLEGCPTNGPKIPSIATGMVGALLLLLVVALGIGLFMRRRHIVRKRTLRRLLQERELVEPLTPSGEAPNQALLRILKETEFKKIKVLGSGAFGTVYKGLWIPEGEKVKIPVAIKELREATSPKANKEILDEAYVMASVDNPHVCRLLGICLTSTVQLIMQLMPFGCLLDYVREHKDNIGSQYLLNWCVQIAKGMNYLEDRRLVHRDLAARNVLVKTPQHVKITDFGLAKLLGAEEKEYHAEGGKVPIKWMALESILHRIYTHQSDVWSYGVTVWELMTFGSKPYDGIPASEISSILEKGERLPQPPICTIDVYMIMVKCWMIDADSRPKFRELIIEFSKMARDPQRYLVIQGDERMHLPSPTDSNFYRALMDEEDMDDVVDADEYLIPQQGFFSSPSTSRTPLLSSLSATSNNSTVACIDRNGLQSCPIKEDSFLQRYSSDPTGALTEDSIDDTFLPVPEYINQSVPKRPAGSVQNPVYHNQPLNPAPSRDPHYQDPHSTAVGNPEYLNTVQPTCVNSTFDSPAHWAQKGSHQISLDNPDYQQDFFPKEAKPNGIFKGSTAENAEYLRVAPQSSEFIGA

FGFR3 = FGFR3 (Homo sapiens, UniProt P22607); assay: KINOMEscan: FGFR3; conditions: 1000 nM, read-out: Percent Control
LATS2 = LATS2 (Homo sapiens, UniProt Q9NRM7); assay: KINOMEscan: LATS2; conditions: 1000 nM, read-out: Percent Control
MRCKA = MRCKA (Homo sapiens, UniProt Q5VT25); assay: KINOMEscan: MRCKA; conditions: 1000 nM, read-out: Percent Control

GSK3α, sequence (P49840 whole entry): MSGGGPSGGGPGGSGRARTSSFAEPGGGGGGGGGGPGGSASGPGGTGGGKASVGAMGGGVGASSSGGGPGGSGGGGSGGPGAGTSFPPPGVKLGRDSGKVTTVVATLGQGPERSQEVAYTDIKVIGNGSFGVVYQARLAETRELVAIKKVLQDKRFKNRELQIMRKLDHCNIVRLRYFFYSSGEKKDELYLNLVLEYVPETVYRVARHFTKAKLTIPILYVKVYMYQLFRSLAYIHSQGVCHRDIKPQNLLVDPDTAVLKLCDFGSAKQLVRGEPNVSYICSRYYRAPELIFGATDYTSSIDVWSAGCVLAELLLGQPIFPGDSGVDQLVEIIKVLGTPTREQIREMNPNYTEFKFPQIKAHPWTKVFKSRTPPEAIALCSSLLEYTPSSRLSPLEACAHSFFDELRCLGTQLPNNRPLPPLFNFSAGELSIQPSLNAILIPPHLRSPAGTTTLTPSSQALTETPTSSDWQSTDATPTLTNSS

`COc1cc(F)ccc1-c1cc(Nc2cc(CS(C)(=N)=O)ccn2)ncc1F` (centres unmarked) [VIP152] was tested, and the inhibition at 0.1 µM (GSK3α; 100 nM, read-out: inhibition of GSK3α relative to control) was 97.1%, the remaining binding at 0.1 µM (GSK3α; GSK3A, 100 nM, read-out: Percent Control) was 2.9% and the remaining binding at 1 µM (GSK3α; GSK3A, 1000 nM, read-out: Percent Control) was 4.5%. For the same compound, the inhibition at 10 µM (Muscarinic M1) was -10%, the inhibition at 10 µM [1] was 3% and the inhibition at 10 µM (Opiate κ(OP2, KOP)) was 8%. For the same compound, the remaining binding at 1 µM (PKNB(M.tuberculosis)) was 100%, the remaining binding at 0.1 µM [2] was 100% and the remaining binding at 0.1 µM (SRMS) was 98%. For the same compound, the remaining binding at 0.1 µM (TAK1) was 97%, the remaining binding at 0.1 µM (TIE1) was 100% and the remaining binding at 0.1 µM (TTK) was 95%. The remaining binding at 0.1 µM (VPS34) was 94%, the remaining binding at 0.1 µM (WEE1) was 98% and the remaining binding at 1 µM (ACVR1) was 64%. For the same compound, the remaining binding at 1 µM (ACVR2B) was 65%, the remaining binding at 1 µM (ALK) was 92% and the remaining binding at 1 µM (ANKK1) was 83%. It also gave a remaining binding at 1 µM (ASK1) of 97%, a remaining binding at 1 µM (ASK2) of 91% and a remaining binding at 1 µM (AURKC) of 38%. It also gave a remaining binding at 1 µM (CHEK1) of 100%, a remaining binding at 1 µM (EGFR(T790M)) of 94% and a remaining binding at 1 µM (FGFR3) of 75%. It also gave a remaining binding at 1 µM (LATS2) of 97% and a remaining binding at 1 µM (MRCKA) of 82%.
